Results from the METLIN SMRT retention time set (Domingo-Almenara et al. 2019).

Assay: gradient 5% acetonitrile 3 min, to 50% in 2 min, to 85% in 15 min, held 3 min, 100 µL/min
Details: column: Zorbax Extend-C18 2.1 x 50 mm; eluents: water / acetonitrile, 0.1% formic acid
Summary of the method: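 A Zorbax Extend-C18 column (2.1 × 50 mm, 1.8 μm) run at 100 μL/min with water and acetonitrile, both containing 0.1% formic acid, separated mixtures of ~100 pure standards. The HPLC was coupled to a quadrupole time-of-flight mass spectrometer operated in positive and negative ionization mode, with dead and dwell volumes of 40 μL and 900 μL. Each retention time was taken from a computationally picked adduct peak that was then manually inspected.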

Row | Structure (SMILES) | RP-LC retention time
1 | O=C(NCc1csc(C2CCN(C(=O)Cc3ccc(Cl)cc3)CC2)n1)C1CCC1 | 784 s
2 | Cc1ccccc1-c1nnc(CSc2nnc(NC(=O)c3ccc(Br)o3)s2)o1 | 919 s
3 | CN(CCCNC(=O)C1CCN(c2nnc3ccc(Cl)cn23)CC1)c1ccccc1 | 606 s
4 | COc1ccc(-c2c(C)nn3c(N4CCN(c5ccccn5)CC4)cc(C)nc23)cc1OC | 600 s
5 | CN1C(=O)Cc2cc(C(=O)N3CCN(c4ccccc4F)CC3)ccc21 | 765 s
6 | CCn1cnc(S(=O)(=O)N2CCC(C(=O)Nc3cccc4ccccc34)CC2)c1 | 732 s
7 | CCC(Oc1ccccc1)C(=O)Nc1nc(-c2ccc(Cl)cc2)cs1 (stereo not given) | 1240 s
8 | Cc1ccc2c(c1)[C@H]1OCCC[C@H]1C(c1cccc(O)c1)N2 (stereo not given in full) | 928 s
9 | COc1ccc(C2C(C(=O)c3cccs3)=C(O)C(=O)N2CCCN2CCOCC2)cc1OC (stereo not given) | 613 s
10 | Cc1nc(-c2ccccc2)c(-c2ccncc2)o1 | 855 s
11 | CCN1C(=O)c2cccnc2Sc2cc(NC(=O)c3ccccc3F)ccc21 | 834 s
12 | O=C(NC1CCN(c2cc(N3CCOCC3)cnn2)C1)C1CCCC1 (stereo not given) | 548 s
13 | COc1ccccc1CNC1=NCCNC12CCN(S(=O)(=O)c1ccccc1C)CC2 | 732 s
14 | O=C(NCCc1c[nH]c2ccccc12)c1cc(S(=O)(=O)N2CCCCC2)ccc1Cl | 966 s
15 | Cc1nc(Cn2cccc2C(=O)Nc2ccc(Br)c(C)c2)no1 | 995 s
16 | Cc1cccc(C(=O)N2CCCC2c2cc(C(C)C)on2)c1 (stereo not given) | 948 s
17 | CC(C)CC(=O)NC1CCN(c2ccc(F)cc2)C1=O (stereo not given) | 742 s
18 | Cc1cnc(C(=O)NC2C[C@H]3CC[C@@H](C2)N3C(=O)c2sccc2C)cn1 (stereo not given in full) | 663 s
19 | CCn1cc(-c2ccc(Cl)cc2)cc1C(=O)NCc1cccnc1 | 738 s
20 | O=C(CSc1cnc2ccccc2n1)N1CCN(c2ccc(F)cc2)CC1 | 851 s
21 | O=C(c1nnn2c1COC(c1ccc(Cl)cc1)C2)N1CCSCC1 (stereo not given) | 949 s
22 | O=C(CCn1nnc2cc(-c3noc(COc4ccccc4)n3)ccc21)N1CCCC1 | 862 s
23 | CC(C)OCCCNCc1ccc2c(c1)n(C)c(=O)n2C | 592 s

Row | Structure (SMILES) | RP-LC retention time
24 | Clc1cc(Br)ccc1-c1ccc(CNCC2CCNCC2)o1 | 605 s
25 | CCc1nn2c(CNC(=O)c3cccnc3)c(-c3ccccc3)nc2s1 | 700 s
26 | CN(C)C(=O)c1ccc2c(c1)n(Cc1ccc(F)cc1)c(=O)c1ccnn12 | 780 s
27 | CCc1cccc(C)c1Nc1c(-c2cc(Br)ccc2O)nc2ncccn12 | 1090 s
28 | COc1ccccc1OCCN1C(=O)C(NC(C)=O)c2ccccc21 (stereo not given) | 666 s
29 | CN(C)C(=O)c1cc(=O)[nH]c2ccc(F)cc12 | 577 s
30 | Cc1ccccc1-c1nc(C2CCN(S(=O)(=O)c3ccccc3F)CC2)no1 | 1150 s
31 | O=C(C1CC(=O)N(c2ccccc2)C1)N1CCN(c2ccc(-c3noc(C4CCC4)n3)cc2)CC1 (stereo not given) | 970 s
32 | CCS(=O)(=O)c1ccc(-c2ccc(NC(=O)c3cc(Cl)ccc3Cl)cc2)nn1 | 840 s
33 | CCCCOc1ccc(NC(=O)c2cc(=O)c3ccc(C)c(C)c3o2)c2cccnc12 | 788 s
34 | Cc1cc(C(=O)Nc2nnc(SCC(=O)Nc3ccccc3C(F)(F)F)s2)no1 | 767 s
35 | COc1ccc(C(=O)N2CCCC2COc2ccc(C(=O)N3CCCC3)cc2)cc1 (stereo not given) | 800 s
36 | CN(C)Cc1ccc(S(=O)(=O)n2ccc(/C=C/C(=O)NO)c2)cc1 | 936 s
37 | Cc1nc(NC(=O)c2ccccc2)nc2cc3c(cc12)OCO3 | 688 s
38 | COc1ccc(-c2cc(C(N)=O)c(C)n2C)cc1 | 729 s
39 | COc1ccc(-c2c(C)noc2NC(C)=O)cc1S(=O)(=O)N1CCc2ccccc2C1 | 807 s
40 | c1ccc(-c2nc3ccccc3s2)nc1 | 1010 s
41 | O=C(c1ccc(OCC2CCCN(C(=O)c3ccc(F)c(F)c3)C2)cc1)N1CCOCC1 (stereo not given) | 801 s
42 | COc1ncc(C(=O)Nc2ccc(F)cc2C)c(C)n1 | 638 s
43 | CCn1cnc2ccc(-c3noc(Cc4ccc(Cl)cc4)n3)cc21 | 774 s
44 | CCc1nc(-c2csc(S(=O)(=O)N3CCCC(C(=O)Nc4ccccc4C)C3)c2)no1 (stereo not given) | 1010 s
45 | O=C(c1c(F)cccc1F)N1CCc2nc(-c3ccccc3)ncc2C1 | 909 s
